The target of data set [1] is human TrkA protein (Homo sapiens (Human), UniProt P04629). As to the kind of experiment: Evaluation on binding activity against human TrkA protein (TrkA LanthaScreen Eu Kinase Binding Assay). Particulars: result in words. As for the experimental part: (Pharmacology Experiment 1): Evaluation on Binding Activity Against Human TrkA Protein
Measurements were made using TrkA LanthaScreen™ Eu Kinase Binding Assay (ThermoFisher SCIENTIFIC). Into 384 well plates (Corning), a 2.5 μL solution having each concentration of the test compound (1) diluted in Kinase buffer (ThermoFisher SCIENTIC) and a 2.5 μL having 15 nM TrkA enzyme (ThermoFisher SCIENTIFIC) were added. In addition, a 5 μL having 3 nM Eu-anti-His Tag […] (ThermoFisher SCIENTIFIC) and 5 μL having 30 nM Kinase™ Tracer 236 (ThermoFisher SCIENTIFIC) were added, and allowed to react at room temperature for 60 minutes. After the reaction, the fluorescence ratio was calculated as the binding amount of the test compound (1) with TrkA enzyme, by measuring the fluorescence intensity (Emission wavelength 615 nm) and TR-FRET (Emission wavelength 665 nm) of Europium by the excitation wavelength of 340 nm using EnVision 2100 (PerkinElmer). […]
The inhibitory activity of each crystal of the test compound (1), which is 1-((1R,2R)-2-hydroxy-4,4-dimethyl-1,2,3,4-tetrahydronaphthalen-1-yl)-3-(5-methyl-6-(2-methylpyrimidin-5-yl)-2-phenylpyridin-3-yl)urea can be assessed by IC50 value.
For orientation: In TR-FRET formats the signal depends on donor and acceptor labels being close together.

A short description of data set [2]: Safety observation in pharmacology experiments 3 and 4 in rats. It counts as in vivo. Particulars: oral administration. On the procedure: (Pharmacology Experiment 3): Inhibitory Effect on NGF-Induced Vascular Permeability Increase in Rats
The inhibitory activity against TrkA in vivo was evaluated. Clipped back male Sprague-Dawley rats (CD(SD)IGS rats, Charles River, Japan) were orally administered test compound (1) dissolved or suspended in a solvent (dose volume: 5 mL/kg). Vehicle controls were treated orally with vehicle. […] A 200 μL of the formamide extract was transferred to a 96-well plate (Nunc), and the absorbance (wavelength: 620 nm) of Evans blue extracted into formamide was measured using SpectraMax (Molecular Device). […]
The analgesic effect of the test compound (1) was evaluated in a CFA-induced rat model. […]
Measurements were made 7 days after CFA administration. After calming the animals to the measurement environment for at least 1 hour, the footpads were stimulated with von Frey filaments according to the Dixon up-down method (Journal of Neuroscience Methods, Vol. 53, pp. 55-63, 1994), and then 50% threshold (g) was calculated by the following equation. […]

human TrkA protein, sequence (P04629 33-796): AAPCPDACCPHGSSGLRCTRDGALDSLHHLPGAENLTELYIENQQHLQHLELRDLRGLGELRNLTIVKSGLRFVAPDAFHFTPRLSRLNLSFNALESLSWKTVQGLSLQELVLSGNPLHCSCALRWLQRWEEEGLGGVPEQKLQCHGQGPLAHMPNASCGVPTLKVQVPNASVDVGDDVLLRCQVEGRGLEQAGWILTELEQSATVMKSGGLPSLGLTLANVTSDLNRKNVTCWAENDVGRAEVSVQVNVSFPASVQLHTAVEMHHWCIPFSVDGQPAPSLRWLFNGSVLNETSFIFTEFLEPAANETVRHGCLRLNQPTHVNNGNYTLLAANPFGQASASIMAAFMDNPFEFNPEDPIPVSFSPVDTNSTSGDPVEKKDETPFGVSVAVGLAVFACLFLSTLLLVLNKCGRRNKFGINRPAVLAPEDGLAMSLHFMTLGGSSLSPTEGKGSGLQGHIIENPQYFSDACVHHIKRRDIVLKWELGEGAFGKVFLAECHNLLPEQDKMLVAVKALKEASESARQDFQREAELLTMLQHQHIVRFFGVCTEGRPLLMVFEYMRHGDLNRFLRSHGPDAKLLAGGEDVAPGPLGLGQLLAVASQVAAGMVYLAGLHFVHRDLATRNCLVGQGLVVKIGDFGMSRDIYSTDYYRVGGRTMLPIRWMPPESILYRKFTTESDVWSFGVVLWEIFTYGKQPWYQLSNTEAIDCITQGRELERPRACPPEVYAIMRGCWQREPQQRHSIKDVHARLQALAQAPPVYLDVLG

As for `Cc1ncc(-c2nc(-c3ccccc3)c(NC(=O)N[C@@H]3c4ccccc4C(C)(C)C[C@H]3O)cc2C)cn1` [Example 1, 1-((1R,2R)-2-hydroxy-4,4-dimethyl-1,2,3,4-tetrahydronaphthalen-1-yl)-3-(5-methyl-6-(2-methylpyrimidin-5-yl)-2-phenylpyridin-3-yl)urea], in data set [1], the TrkA inhibitory effect result is listed as “excellent”. For the same compound, the “Abnormalities in the safety test” value in data set [2] was “no abnormalities”.

The record behind these values is US12134607B2, “Crystals of tetrahydronaphthyl urea derivative” (MOCHIDA PHARMACEUTICAL CO., LTD., priority 2017, dated 2024).
